Results published in PMC9916778 (International Journal of Molecular Sciences, 2023).
Like-named read-outs stand apart in the source and are kept apart here.

Assays:
THP1-Blue™ NF-κB cells = test: Cell viability, CCK-8, serum-free medium; format: cell-based, human; conditions: THP1-Blue NF-κB cells, serum-free medium, 24 h treatment, CCK-8; read-out: IC50 ± SEM, cytotoxic effect
Method: The cells were cultivated in RPMI (Roswell Park Memorial Institute) 1640 medium (Biosera; Nuaille, France) supplemented with 10% fetal bovine serum (FBS) and antibiotics (100 U/mL penicillin and […] streptomycin) (both from Merck). All further experiments were performed in serum-free medium. The effect of the test compounds dissolved in DMF on cell viability after 24 h incubation was determined using a Cell Counting Kit-8 (CCK-8; Merck) according to the manufacturer’s instructions, similarly as previously described.

[1] = test system: human cancer cell lines (A2780, A2780R, PC-3, 22Rv1, and THP-1); test: In vitro cytotoxicity, summary statements over the panel of cell lines; format: cell-based; conditions: for IC50: A2780, A2780R
Method: (§1) The testing was performed on the ovarian carcinoma (A2780), Cisplatin-resistant ovarian carcinoma (A2780R), prostate adenocarcinoma (PC-3), prostate carcinoma (22Rv1), and leukemia monocytic (THP-1) and intestinal colon adenocarcinoma (LS180) human cell lines that were obtained from the ATCC collection of cell lines and cultivated according to the producer’s instructions. The reference normal cell line of human fetal fibroblasts (MRC-5) was obtained from the same commercial source and maintained according to the producer’s instructions. The half-maximal inhibitory concentrations (IC50) were calculated from dose–response curves by means of the GraphPad Prism 6 software (GraphPad Software, San Diego, CA, USA).

MCF-7 cells = conditions: literature data ref 22; cited from earlier work
PPARγ = test: Immunocytochemical analysis of PPARγ expression and localisation; format: cell-based, human; conditions: 100 nM, 1 h pre-treatment, LPS-stimulated THP1-Blue NF-κB macrophages
Method: THP1-Blue™ NF-κB cells were seeded onto a µ-Slide 8 Well (Ibidi; Gräfelfing, Germany) and differentiated into macrophages by […] (PMA) at the final concentration of 50 ng/mL, as was described previously.
Differentiated macrophages were washed by PBS and covered by fresh serum-free medium for 2 h. […] One hour later, the cells were challenged by LPS for 24 h. Then, the cells were washed by PBS and fixed by 4% paraformaldehyde dissolved in PBS for 10 min. Cell permeabilization and blocking of free binding sites were performed by 0.1% (v/v) Triton X100 and 5% (w/v) bovine serum albumin (BSA) dissolved in PBS for 1 h at room temperature. After that, cells were washed by PBS with 0.1% (v/v) Tween 20 and covered by fresh PBS with 5% BSA and 0.1% Tween 20 containing Alexa Fluor® 546-labelled anti-PPARγ antibody diluted 1:100 (catalogue number sc-7273; Santa Cruz Biotechnology; Dallas, TX, USA) for a further 24 h. Then, cells were washed by PBS with 0.1% Tween 20 and incubated with Hoechst stain diluted 1:2000 for 10 min. The remaining stain was washed out by PBS and covered by fresh PBS for further microscope analysis. The confocal microscope Leica TCS SP8 MP (Leica Microsystems, Mannheim, Germany) was used for obtaining the images for the immunocytochemical analysis of PPARγ expression and localization.

[2] = test system: MRC5 human fetal fibroblasts; test: In vitro cytotoxicity (MTT assay), normal MRC-5 fibroblasts; format: cell-based; conditions: ± standard deviation, triplicate, read-out: IC50, MRC5 (healthy cells)
Method: as §1

[3] = test system: PC-3 prostate adenocarcinoma cells; test: In vitro cytotoxicity (MTT assay), PC-3; format: cell-based, human; conditions: ± standard deviation, triplicate
Method: as §1

[4] = test system: A2780R Cisplatin-resistant ovarian carcinoma cells; test: In vitro cytotoxicity (MTT assay), A2780R; format: cell-based, human; conditions: ± standard deviation, triplicate
Method: as §1

[5] = test system: A2780 ovarian carcinoma cells; test: In vitro cytotoxicity (MTT assay), A2780; format: cell-based, human
Method: The reference normal cell line of human fetal fibroblasts (MRC-5) was obtained from the same commercial source and maintained according to the producer’s instructions. The half-maximal inhibitory concentrations (IC50) were calculated from dose–response curves by means of the GraphPad Prism 6 software (GraphPad Software, San Diego, CA, USA).

A2780 cells [6] = test: Mitochondrial membrane potential analysis (MITO-ID); format: cell-based, human; conditions: A2780, half-cytotoxic concentration, 24 h
Method: The A2780 cells were seeded in 24-well cell culture plates at 5 × 10^4 cells/well and cultivated for 24 h. The next day, the complex (1) was added to a final concentration of 4 µM, and the cells were incubated for another 24 h. […] The cells were then isolated by centrifugation and resuspended in a staining solution prepared according to the manufacturer’s protocol from a MITO-ID® Membrane Potential Detection kit (Enzo Life Sciences, USA). Finally, the cells were analyzed using a BD FACSVerse flow cytometer (Becton Dickinson, USA). The control was carried out by treatment with 2 µM carbonyl cyanide 3-chlorophenylhydrazone (CCCP). Three independent experiments were conducted, each in duplicate.

[7] = test system: LS180 intestinal colon adenocarcinoma cells; test: In vitro cytotoxicity (MTT assay), LS180; format: cell-based, human; conditions: ± standard deviation, triplicate
Method: as §1

A2780 cells [8] = test: Intracellular ROS/superoxide production; format: cell-based, human; conditions: A2780, half-cytotoxic concentration, 24 h, with or without pyocyanin
Method: ROS induction in A2780 cells after incubation with 4 μM complex (1) was studied using a ROS-ID® Total ROS/Superoxide detection kit (Enzo Life Sciences, Farmingdale, NY, USA) according to the manufacturer’s protocol. The cells were seeded in a 96-well cell culture plates at 10^4 cells per well and cultivated for 24 h, followed by 24 h experimental treatment. Then, the cells were stained with ROS/superoxide probe mixture and incubated at 37 °C in the dark for 60 min. Finally, the fluorescence was measured using a microplate reader Infinite M200Pro (Tecan, Männedorf, Switzerland). The control samples contained 500 µM pyocyanin, and three independent experiments were conducted, each in triplicate.

A2780 cells [9] = test: Induction of apoptosis, Annexin V-FITC/PI staining; format: cell-based, human; conditions: A2780, half-cytotoxic concentration, 24 h
Method: (§2) The induction of cell death by complex (1) was studied by two methods in the A2780 cell line. Firstly, the induction of apoptosis was tested using an Annexin V-FITC/PI commercial kit (V13242, Thermo Fisher Scientific, USA). Second, caspase 3/7 activation was monitored using the CellEvent™ Caspase-3/7 Green Flow Cytometry Assay Kit (C10427, Thermo Fisher Scientific, USA). Both assays were performed according to the manufacturers’ protocols with one modification in the caspase induction assay: the use of CellEvent^TM Caspase-3/7 Green Detection Reagent was only for the detection of caspase 3/7 activation. The general procedure was as follows: 5 × 10^4 cells per well were seeded in a 24-well cell culture plate, and after 24 h, the cells were treated with 4 µM solution of complex (1) and cultivated for next 24 h. […] The trypsin was blocked by adding the cell culture medium to a final volume of 500 µL, and the resulting cell suspensions were divided into two separate 250 µL aliquots. The first set of aliquots was used to evaluate the Annexin V-FITC/PI assay, whilst the second one was used for the caspase 3/7 activation assay. Both assays were performed using a BD FACSVerse flow cytometer (Becton Dickinson, USA) in three independent experiments, each performed in duplicate.

A2780 cells [10] = test: Cell cycle analysis (flow cytometry); format: cell-based, human; conditions: A2780, half-cytotoxic concentration, 24 h; for Number of cells in the G0/G1 phase: vs untreated control
Method: After 24 h, the cells were treated with a 4 µM solution of complex (1) and cultivated for the next 24 h. Then, the cells were washed once with PBS (0.1 M, pH 7.4), and cell cycle analysis was performed using a BD Cycletest^TM Plus DNA kit (Becton Dickinson, Franklin Lakes, NJ, USA) according to the manufacturer’s protocol. The data were acquired using a BD FACSVerse flow cytometer (Becton Dickinson, USA) in three independent experiments, each performed in duplicate, while at least 5 × 10^3 events were recorded for each sample.

A2780 cells [11] = test: Induction of autophagy (CYTO-ID kit); format: cell-based, human; conditions: A2780, half-cytotoxic concentration, 24 h
Method: The induction of autophagy by complex (1) was studied using a CYTO-ID® Autophagy Detection Kit 2.0 (ENZO, New York, NY, USA) according to the manufacturer’s protocol. Briefly, the A2780 cells were seeded in a 24-well cell culture plate at 5 × 10^4 cells per well and cultivated for 24 h. The next day, the cells were treated with complex (1) at 4 µM. […] Then, the cells were stained with CYTO-ID® Green stain solution and incubated for 30 min in the dark. After the final wash with PBS, the cell suspensions were analyzed using the BD FACSVerse flow cytometer (Becton Dickinson, USA) in three separate experiments, while at least 10^4 events were recorded for each sample prepared in duplicates. The cells incubated with the mixture of chloroquine (10 µM) and rapamycin (0.5 µM) for 18 h were used as a positive control.

[12] = test system: 22Rv1 prostate carcinoma cells; test: In vitro cytotoxicity (MTT assay), 22Rv1; format: cell-based, human; conditions: ± standard deviation, triplicate
Method: as §1

caspases 3/7 = test: Caspase 3/7 activation (flow cytometry); format: cell-based, human; conditions: A2780, half-cytotoxic concentration, 24 h
Method: as §2

[13] = test system: THP-1 leukemia monocytic cells; test: In vitro cytotoxicity (MTT assay), THP-1; format: cell-based, human; conditions: ± standard deviation, triplicate
Method: as §1

NF-κB = NF-κB activity in LPS-challenged cells (SEAP reporter); format: cell-based, human; conditions: 100 nM, 1 h pre-treatment, LPS 24 h, THP1-Blue NF-κB monocytes
Method: The effect of the tested compounds to influence the function of transcription factor NF-κB was determined on lipopolysaccharide (LPS)-challenged THP1-Blue™ NF-κB cells as we described previously. […] After 24 h incubation, the activity of NF-κB was determined as the amount of secreted embryonic alkaline phosphatase using Quanti-Blue™ medium (Invivogen).

A2780 cells [14] = conditions: 23 nM concentration ref 25; cited from earlier work
Caco-2 cells = conditions: read-out: IC50, antiproliferative effect, Caco-2 cells; cited from earlier work
[15] = MTT, 24 h incubation, ± standard deviation, triplicate, read-out: IC50, A2780

For 6-furfuryladenine [Kinetin], the IC50 (THP1-Blue™ NF-κB cells) is listed as over 10 µM, the IC50 ([1]; read-out: IC50 of kinetin, PC-3, concentration range 0.01–25 μM) is listed as over 25 µM and the IC50 (MCF-7 cells) is listed as 52 µM. The “Effect on the amount of PPARγ” value (PPARγ) was “did not show this effect”, the IC50 [2] was over 25 µM and the IC50 [3] was over 25 µM. It also gave an IC50 [4] of over 25 µM and an IC50 [5, 15] of over 25 µM.
For N.N.[Cl][Pt][Cl] [Cisplatin], the “Damage to mitochondrial membranes” value (A2780 cells [6]) was “Significant changes in mitochondrial membrane permeability”, the IC50 [7] was over 50 µM and the “Intracellular oxidative stress, ROS and superoxide levels” value (A2780 cells [8]) was “did not cause a significant increase in the intracellular oxidative stress”. For the same compound, the “Cells in early and late-stage apoptosis” value (A2780 cells [9]) was “around 40%”, the IC50 [2] was over 50 µM and the IC50 [3] was over 50 µM. For the same compound, the “Effect on the cell cycle” value (A2780 cells [10]) was “arrested a significant number of cells in S-phase”, the “Number of cells in the G0/G1 phase” value (A2780 cells [10]) was “significant decrease in the number of cells in the G0/G1 phase” and the “Induction of autophagy” value (A2780 cells [11]) was “significantly induced the autophagy”. The IC50 [4] was over 50 µM, the IC50 [12] was 28.2 ± 4.2 µM and the “Cells with active executioner caspases 3/7” value (caspases 3/7) was “around 50%”.
With c1ccc([PH]([Au][n]2cnc3c(NCc4ccco4)ncnc32)(c2ccccc2)c2ccccc2)cc1 [[Au(kin)(PPh3)] (1), [Au(kin)(PPh3)]] the “Damage to mitochondrial membranes” value (A2780 cells [6]) was “clearly the least effective”, the IC50 ([1]; PC-3, 22Rv1, and THP-1, read-out: IC50 against human cancer cell lines (summary)) was 1 to 5 µM and the “selectivity index (SI)” value ([1]; IC50 for normal cell line/IC50 for cancerous cell line) was “higher than 2”. The IC50 [7] was over 10 µM, the “Effect on the amount of PPARγ” value (PPARγ) was “slightly increase the amount of PPARγ” and the “Cells in early stage apoptosis (Annexin V+/PI-)” value (A2780 cells [9]) was “around 10%”. The “Cells in late stage apoptosis (Annexin V+/PI+)” value (A2780 cells [9]) was “around 30%”, the IC50 [2] was over 10 µM and the IC50 [3] was 4.8 ± 1.3 µM. The “Population of cells in G2/M phase” value (A2780 cells [10]) was 24.8 ± 1.0%, the “Population of cells in S phase” value (A2780 cells [10]) was 22.6 ± 1.6% and the “Number of cells in the G0/G1 phase” value (A2780 cells [10]) was “significant decrease in the number of cells in the G0/G1 phase”. The “Induction of autophagy” value (A2780 cells [11]) was “not shown to cause metabolic stress strong enough to induce the autophagy”, the IC50 [4] was 5 ± 1.5 µM and the IC50 [12] was 3.7 ± 0.5 µM. For the same compound, the IC50 ([5]; 24 h incubation, read-out: Time-dependent in vitro cytotoxicity (IC50), A2780, 24 h) was 2.9 ± 0.7 µM, the IC50 ([5]; 72 h incubation, read-out: Time-dependent in vitro cytotoxicity (IC50), A2780, 72 h) was 3 ± 0.6 µM and the IC50 [5, 15] was 2.9 ± 0.7 µM. The IC50 ([5]; read-out: IC50, A2780, after 48 h and 72 h incubation, 48 h and 72 h incubation, insignificant changes) was about 3 µM, the IC50 ([5]; read-out: Time-dependent in vitro cytotoxicity (IC50), A2780, 48 h, 48 h incubation) was 3 ± 0.3 µM and the IC50 [13] was 1.1 ± 0.2 µM. For the same compound, the “Cells with active executioner caspases 3/7” value (caspases 3/7) was “around 40%” and the “Effect on LPS-stimulated NF-κB activity” value (NF-κB) was “did not show any effect on the activity of NF-κB”.
In the case of CCN(CC)C(=S)[S][Au][PH](c1ccccc1-c1ccccc1)(C(C)(C)C)C(C)(C)C [diethyldithiocarbamato-[(1,1′-biphenyl-2-yl)di-tert-butylphosphine] gold(I) complex], the “Cells in G2/M arrest, A2780” value (A2780 cells [14]) is listed as “around 30%”.
In the case of [Au(tpy)Cl(2-TU)], the IC50 (Caco-2 cells) is listed as 0.51 ± 0.28 µM.
